Where two headings read alike, the source gives them in different places.
Columns and labels:
Assay type in all cases: physicochemical
[1] = Four hour solubility in buffered media (HPLC quantitation); details: for solubility at 4 h: 25 °C, thermodynamic from solid, read-out: Solubility after 4 hours; for Solubility after 4 hours: 25° C.
Procedure: Sufficient sample was suspended in 1.0 ml media for a maximum anticipated concentration of ca. 10 mg/ml of the free form of the compound. The resulting suspensions were then shaken at 25° C./750 rpm for 4 hours. The pH of the sample solutions was checked after 1 hour and adjusted as necessary with 0.2 M NaOH to ensure that the desired pH was maintained throughout (±0.2). After equilibration, the appearance was noted, and the final pH of the saturated solution was measured. Samples were then filtered through a glass C′ fibre filter (Particle retention size 1.2 μm). Samples suspended in pH 1.2 buffer were diluted 10 times with pH 1.2 buffer, all other samples were analysed undiluted. Quantitation was by HPLC with reference to a standard solution of approximately 0.15 mg/ml. Different volumes of the standard, diluted and undiluted sample solutions were injected. The solubility was calculated using the peak areas determined by integration of the peak found at the same retention time as the principal peak in the standard injection. [table] [table]

[2] = Intrinsic dissolution rate (IDR), Sirius inForm; details: pH 2.8, 37° C., 3 mm disc
Excerpt: Data were collected on a Sirius inForm instrument fitted with a dual UV Dip Probe attachment and Ag/AgCl combination pH electrode. The electrode was calibrated using the four plus parameters derived from a blank titration. The base titrant was standardised by titration with TRIS. 0.5 M HCl and NaOH aqueous solutions were used as the acid and base titrants respectively for the testing. Stirring was facilitated by a dual overhead stirrer to allow thorough mixing within the vessel, and media was introduced via a capillary bundle attached to a dispensing bank comprised of six precision dispensing units. A Peltier heating jacket was used to maintain the temperature of the titration vessel. Discs were introduced to the vessel via the tablet picker housed in the probe arm, after the desired temperature of the media had been reached. Sirius inForm Assay Design, Control and Refine software were used to design, run and refine data respectively. The reference sample was prepared as a 10.1 mM stock solution in DMSO. MEC data was then collected using UV metric method with initial addition of 100 μl of DMSO stock. UV Spectra were then collected from low to high pH (pH 2-12) in two titrations using a 5 mm path length. The MEC data set was then imported into the dissolution data files in order to convert the UV absorbance measured to concentration. The concentration range for UV data collected was […]. MEC data were collected in the dissolution media (36 ml of ISA water+4 ml of GI Tract buffer) and at 37° C. to match the dissolution experiments. Ca. 8-20 mg of the sample was compressed in a 3 mm disc recess, under 100 kg for 2 minutes, with greaseproof paper on the compression base, to form non-disintegrating discs. The discs were then plugged with a bung so that only one surface was exposed to the media during analysis and transferred to the Sirius inForm dissolution apparatus. […] The IDR was calculated based on the surface area of the 3 mm disc recess used (7.07 mm^2 surface area). […]

[3] = Storage stability of the crystalline form (XRPD diffractogram and chemical purity); details: 28 days storage at 40° C./75% RH and 25° C./97% RH
Excerpt: (§1) Entrectinib anhydrate (Form A) was also characterised as follows: • TGA and DSC analysis (see FIG. 2). • GVS isotherm analysis (see FIG. 3). • XRPD analysis pre- (bottom) and post- (top) GVS (see FIG. […] 5). The XRPD overlays illustrate that entrectinib anhydrate (Form A) is stable under the storage conditions.
Entrectinib anhydrate (Form C) was also characterised as follows: • TGA and DSC analysis (see FIG. 9). • GVS isotherm analysis (see FIG. 10). • XRPD analysis before (bottom) and after (top) the GVS experiment (see FIG. […] 12). The XRPD overlays illustrate that entrectinib anhydrate (Form C) is stable under the storage conditions (see FIG. 12).
as §1, with “monohydrate” for “anhydrate”, “G)” for “A)”, “20).” for “2).”, “21).” for “3).”, “23).” for “5).”

[4] = Gravimetric vapour sorption (GVS), XRPD after analysis; details: 25° C., 0-90% RH
Excerpt: Hygroscopicity of a solid material may be determined by means of gravimetric vapour sorption (GVS) analysis, sometimes known by dynamic vapour sorption (DVS) analysis. The experiment subjects a sample material which is held in a fine wire basket on a microbalance within a temperature and humidity controlled environment (chamber). Using the software, the collected data can then be processed to determine the isotherm points at the increment ranges specified during the experiment and show the overall water uptake of the material. Sorption isotherms were obtained using a SMS DVS Intrinsic moisture sorption analyser, controlled by DVS Intrinsic Control software. The sample temperature was maintained at 25° C. by the instrument controls. The humidity was controlled by mixing streams of dry and wet nitrogen, with a total flow rate of 200 ml/min. The relative humidity was measured by a calibrated Rotronic probe (dynamic range of 1.0-100% RH), located near the sample. The weight change, (mass relaxation) of the sample as a function of % RH was constantly monitored by a microbalance (accuracy ±0.005 mg). Typically, 5-30 mg of sample was placed in a tared mesh stainless steel basket under ambient conditions. The sample was loaded and unloaded at 40% RH and 25° C. (typical room conditions). A moisture sorption isotherm was performed as outlined below (2 scans per complete cycle). The standard isotherm was performed at 25° C. at 10% RH intervals over a 0-90% RH range. Typically, a double cycle (4 scans) was carried out. Data analysis was carried out within Microsoft Excel using the DVS Analysis Suite. [table]

[5] = pH 1.2 hydrochloric acid buffer

| solubility at 4 h ([1]; hydrochloric acid buffer, pH 1.2, simulated gastric fluid, pH 1.2 hydrochloric acid buffer) | solubility at 4 h ([1]; pH 2.8 buffer, pH 2.8, aqueous buffer, pH 2.8 buffer) | Solubility after 4 hours ([1]; pH 4.5 acetate buffer) | Solubility after 4 hours ([1]; pH 6.8 phosphate buffer) | Solubility after 4 hours ([1]; pH 7.5 phosphate buffer) | IDR [2] | Stability under the storage conditions (XRPD overlays) [3] | Change in form after GVS (XRPD after analysis) [4] | Solubility after 4 hours [1, 5] | Solubility after 4 hours ([1]; pH 2.8 buffer) | SMILES |
| --- | --- | --- | --- | --- | --- | --- | --- | --- | --- | --- |
| > 5000 µg/mL | > 5000 µg/mL | pH 4.5->5.0 mg/ml | pH 6.8-0.0024 mg/ml | pH 7.5-0.0013 mg/ml | pH 2.8: 2.5 mg/min/cm^2 | stable | unchanged | – | – | CN1CCN(c2ccc(C(=O)Nc3n[nH]c4ccc(Cc5cc(F)cc(F)c5)cc34)c(NC3CCOCC3)c2)CC1 [Form A, N-[5-[(3,5-difluorophenyl)methyl]-1H-indazol-3-yl]-4-(4-methylpiperazin-1-yl)-2-(oxan-4-ylamino)benzamide] |
| – | – | pH 4.5-4.0 mg/ml | pH 6.8-0.0013 mg/ml | pH 7.5-0.0006 mg/ml | pH 2.8: 2.5 mg/min/cm^2 | stable | unchanged | pH 1.2-4.3 mg/ml | pH 2.8->5.0 mg/ml | CN1CCN(c2ccc(C(=O)Nc3n[nH]c4ccc(Cc5cc(F)cc(F)c5)cc34)c(NC3CCOCC3)c2)CC1 [Form C, N-[5-[(3,5-difluorophenyl)methyl]-1H-indazol-3-yl]-4-(4-methylpiperazin-1-yl)-2-(oxan-4-ylamino)benzamide] |
| – | – | pH 4.5-0.10 mg/ml | pH 6.8-0.0002 mg/ml | pH 7.5-0.0002 mg/ml | pH 2.8: 1.6 mg/min/cm^2 | stable | substantially unchanged | pH 1.2->5.0 mg/ml | pH 2.8->5.0 mg/ml | CN1CCN(c2ccc(C(=O)Nc3n[nH]c4ccc(Cc5cc(F)cc(F)c5)cc34)c(NC3CCOCC3)c2)CC1 [Form G, N-[5-[(3,5-difluorophenyl)methyl]-1H-indazol-3-yl]-4-(4-methylpiperazin-1-yl)-2-(oxan-4-ylamino)benzamide] |
